Here are results for one compound from paper PMC5429603, “Discovery and characterization of verinurad, a potent and specific inhibitor of URAT1 for the treatment of hyperuricemia and gout” (Scientific Reports, 2017).

The IC50 is the concentration at which inhibition is half-maximal.

The target of assay [1] is T1, rat URAT1-Y365F (Rattus norvegicus, UniProt Q3ZAV1, Y365F).
T1 construct: expressed in transfected cells; host or cells: HEK-293T
T1 sequence (Q3ZAV1 1-553 Y365F): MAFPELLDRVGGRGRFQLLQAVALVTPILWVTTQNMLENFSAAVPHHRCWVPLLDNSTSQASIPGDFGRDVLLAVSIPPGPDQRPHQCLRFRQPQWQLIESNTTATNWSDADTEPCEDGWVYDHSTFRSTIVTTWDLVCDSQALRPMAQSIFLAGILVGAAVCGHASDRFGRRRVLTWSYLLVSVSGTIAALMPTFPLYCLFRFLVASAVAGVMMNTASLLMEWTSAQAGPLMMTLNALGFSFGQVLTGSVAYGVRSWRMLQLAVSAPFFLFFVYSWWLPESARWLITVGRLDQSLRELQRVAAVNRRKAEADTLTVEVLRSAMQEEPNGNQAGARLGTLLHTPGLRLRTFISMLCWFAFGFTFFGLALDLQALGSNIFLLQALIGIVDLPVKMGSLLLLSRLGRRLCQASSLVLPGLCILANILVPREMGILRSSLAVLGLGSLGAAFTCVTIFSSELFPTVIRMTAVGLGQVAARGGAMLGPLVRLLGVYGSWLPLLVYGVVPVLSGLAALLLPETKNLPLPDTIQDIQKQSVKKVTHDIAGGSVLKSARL
Put plainly: URAT1 activity assay, r-Y365F. It is filed as cell-based. An excerpt: (§1) Human URAT1 (GenBank BC053348.1, Homo sapiens SLC22A12), rat URAT1 (NCBI NM_001034943.1, Rattus norvegicus Slc22a12) and human OAT4 (NCBI NM_018484.2, Homo sapiens SLC22A11) genes were purchased from Origene Technologies, Inc. and subcloned into pCMV6/neo using NotI. Where indicated, controls transfections used pCMV6/neo. Mutants were produced by site-directed mutagenesis using the QuikChange Lightning Multi Site-Directed Mutagenesis Kit (Agilent Technologies). […] Mutagenic primer sequences are provided in ref. [15] and mutagenic primer sequences for previously unreported mutants shown in Supplementary Table 1. All constructs used in this study were untagged. Human OAT1 was purchased from Fisher Scientific (catalog # MHS1010–7508183 in pSPORT6, NCBI NM_153276.2, Homo sapiens SLC22A6).
HEK-293T cells were maintained in DMEM/high glucose/L-glutamine/HEPES supplemented with 1 mM sodium pyruvate (Life Technologies) and 10% FBS (PAA Laboratories) at 37 °C in 5% CO2. […]
URAT1 and OAT4 activity assays were performed in assay buffer consisting of 25 mM MES pH 5.5 (from a 1 M MES solution [Sigma] adjusted to pH 5.5 with sodium hydroxide), 125 mM sodium gluconate, 4.8 mM potassium gluconate, 1.2 mM monobasic potassium phosphate, 1.2 mM magnesium sulfate, 1.3 mM calcium gluconate and 5.6 mM glucose. […] Each treatment was measured in triplicate.

The target of assay [2] is rat URAT1 r-Y365F/M481I (Rattus norvegicus, UniProt Q3ZAV1, M481I/Y365F). Description: cell-based.
Chain of rat URAT1 r-Y365F/M481I (Q3ZAV1 whole entry Y365F/M481I): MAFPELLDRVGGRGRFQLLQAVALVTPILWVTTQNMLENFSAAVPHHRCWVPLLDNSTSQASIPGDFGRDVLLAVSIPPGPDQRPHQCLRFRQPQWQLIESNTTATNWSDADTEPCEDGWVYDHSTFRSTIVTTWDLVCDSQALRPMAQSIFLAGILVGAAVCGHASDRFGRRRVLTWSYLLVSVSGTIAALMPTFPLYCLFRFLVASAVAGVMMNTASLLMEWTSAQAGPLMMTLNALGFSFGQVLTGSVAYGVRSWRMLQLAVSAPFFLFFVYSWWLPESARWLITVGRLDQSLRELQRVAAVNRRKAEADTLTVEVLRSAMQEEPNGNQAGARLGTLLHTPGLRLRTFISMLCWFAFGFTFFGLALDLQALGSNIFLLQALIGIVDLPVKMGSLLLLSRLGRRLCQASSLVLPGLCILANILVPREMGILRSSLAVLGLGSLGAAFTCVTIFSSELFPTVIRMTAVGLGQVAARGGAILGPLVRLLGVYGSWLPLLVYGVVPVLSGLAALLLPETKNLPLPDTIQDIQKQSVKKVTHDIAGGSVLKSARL
From the text: as §1
(§2) HEK-293T cells were maintained in DMEM/high glucose/L-glutamine/HEPES supplemented with 1 mM sodium pyruvate (Life Technologies) and 10% FBS (PAA Laboratories) at 37 °C in 5% CO2. To express URAT1, OAT4 or OAT1, plasmids were reverse transfected into HEK-293T cells. DNA (10 µg) was mixed with 30 µl of DreamFect Gold (Boca Scientific) in 2 ml OptiMem (Life Technologies). After 20 minutes, 18 ml of media containing 2 × 10^7 cells in suspension was added and mixed, and 200 µl per well were plated onto white clear-bottomed poly-D-lysine coated 96-well plates (BD Biosciences). The cells were assayed the following day.
(§3) URAT1 and OAT4 activity assays were performed in assay buffer consisting of 25 mM MES pH 5.5 (from a 1 M MES solution [Sigma] adjusted to pH 5.5 with sodium hydroxide), 125 mM sodium gluconate, 4.8 mM potassium gluconate, 1.2 mM monobasic potassium phosphate, 1.2 mM magnesium sulfate, 1.3 mM calcium gluconate and 5.6 mM glucose. URAT1 inhibitors were serially diluted into assay buffer and added to the cells for 5 minutes prior to addition of substrate. URAT1-expressing cells were incubated with 100 µM ^14C-uric acid for 10 minutes and OAT4-expressing cells were incubated with 20 µM carboxyfluorescein (Life Technologies, Inc.) for 5 minutes. Cells were then washed three times in 25 mM MES pH 5.5/125 mM sodium gluconate, and solubilized in Ultima Gold (Perkin Elmer) prior to liquid scintillation counting. Each treatment was measured in triplicate.

Assay [3] has as its target rat URAT1 r-V31L (Rattus norvegicus, UniProt Q3ZAV1, V31L). Put plainly: cell-based.
From the text: as §1, §2, §3

The target in assay [4] is rat URAT1 r-L18V (Rattus norvegicus, UniProt Q3ZAV1, L18V). Description: cell-based.
Chain of rat URAT1 r-L18V (Q3ZAV1 whole entry L18V): as the sequence (Q3ZAV1 whole entry Y365F/M481I) above, with L18V, F365Y, I481M counted along it
From the text: as §1, §2, §3

In assay [5] the target is rat URAT1 r-N35S/Y365F (Rattus norvegicus, UniProt Q3ZAV1, N35S/Y365F). Put plainly: cell-based.
Chain of rat URAT1 r-N35S/Y365F (Q3ZAV1 whole entry N35S/Y365F): as the sequence (Q3ZAV1 whole entry Y365F/M481I) above, with N35S, I481M counted along it
From the text: as §1, §2, §3

Assay [6] addresses rat URAT1 r-A21T (Rattus norvegicus, UniProt Q3ZAV1, A21T). Description: cell-based.
From the text: as §1, §2, §3

For assay [7], the target named is rat URAT1 r-N35S/M481I (Rattus norvegicus, UniProt Q3ZAV1, M481I/N35S). Put plainly: cell-based.
Chain of rat URAT1 r-N35S/M481I (Q3ZAV1 whole entry N35S/M481I): as the sequence (Q3ZAV1 whole entry Y365F/M481I) above, with N35S, F365Y counted along it
From the text: as §1, §2, §3

The target in assay [8] is rat URAT1 r-P27S (Rattus norvegicus, UniProt Q3ZAV1, P27S). Description: cell-based.
Chain of rat URAT1 r-P27S (Q3ZAV1 whole entry P27S): as the sequence (Q3ZAV1 whole entry Y365F/M481I) above, with P27S, F365Y, I481M counted along it
From the text: as §1, §2, §3

Assay [9] deals with rat URAT1 r-T26V (Rattus norvegicus, UniProt Q3ZAV1, T26V). Put plainly: cell-based.
Chain of rat URAT1 r-T26V (Q3ZAV1 whole entry T26V): as the sequence (Q3ZAV1 whole entry Y365F/M481I) above, with T26V, F365Y, I481M counted along it
From the text: as §1, §2, §3

Assay [10] addresses rat URAT1 r-V22M (Rattus norvegicus, UniProt Q3ZAV1, V22M). Description: cell-based.
From the text: as §1, §2, §3

Assay [11] deals with rat URAT1 r-L29M (Rattus norvegicus, UniProt Q3ZAV1, L29M). Put plainly: cell-based.
Chain of rat URAT1 r-L29M (Q3ZAV1 whole entry L29M): as the sequence (Q3ZAV1 whole entry Y365F/M481I) above, with L29M, F365Y, I481M counted along it
From the text: as §1, §2, §3

The target of assay [12] is T2, rat URAT1 (Rattus norvegicus, UniProt Q3ZAV1).
T2 construct: host or cells: HEK-293T
T2 sequence (Q3ZAV1 1-553): T1 sequence (Q3ZAV1 1-553 Y365F) with F365Y
Description: URAT1 activity assay, rat URAT1. It is filed as cell-based. As to conditions: rat URAT1 wild type; 14C-uric acid; read-out: IC50, inhibition of transport activity. On the procedure: as §2
as §3, with “Cells were then washed three times in 25 mM MES pH 5.5/125 mM sodium gluconate, and solubilized in Ultima Gold (Perkin Elmer) prior to liquid scintillation counting.” left out

Residue numbers refer to the chain shown, from its start.

Chain of rat URAT1 r-A21T (Q3ZAV1 whole entry A21T): as the sequence (Q3ZAV1 whole entry Y365F/M481I) above, with A21T, F365Y, I481M counted along it
Chain of rat URAT1 r-V31L (Q3ZAV1 whole entry V31L): as the sequence (Q3ZAV1 whole entry Y365F/M481I) above, with V31L, F365Y, I481M counted along it
Chain of rat URAT1 r-V22M (Q3ZAV1 whole entry V22M): as the sequence (Q3ZAV1 whole entry Y365F/M481I) above, with V22M, F365Y, I481M counted along it

On to `CC(C)(Sc1ccncc1-c1ccc(C#N)c2ccccc12)C(=O)O` [Verinurad, 2-((3-(4-cyanonaphthalen-1-yl)pyrindin-4-yl)thio)-2-methylpropanoic acid], for which the “fold higher affinity compared to rat URAT1” value in assay [1] turned out to be 14 fold. For the same compound, the IC50 was found to be 2.9 ± 1.3 µM in assay [1] (TM7 point mutant, read-out: Verinurad affinity (IC50)); 0.59 µM in assay [2]; 29 ± 3.2 µM in assay [3]; 40 ± 6.1 µM in assay [4]; 0.47 µM in assay [5]; 36 ± 5.2 µM in [6]. The IC50 stood at 4.43 µM in assay [7]; 27 ± 3.4 µM in [8]; 39 ± 5.5 µM in assay [9]; 43 ± 2.5 µM in assay [10]; 29 ± 3.3 µM in assay [11]; 41 ± 2.7 µM in assay [12]. Also, the “fold increase in affinity” value in [8] (printed r-S27P, vs rat URAT1) was 1.5 fold.
